Source: patent publication USRE40086E1, “Method for treating bacterial infection with novel 7-substituted-9-substituted amino 6-demethyl-6-deoxytetracyclines” (Wyeth Holdings Corporation, priority 1991, dated 2008)
Counter-ions that a name gives are not always drawn. Like-named read-outs stand apart in the source and are kept apart here.

Tests used:
[1] = tested on: S. haemolyticus AVAH 88-3; test: MIC, agar dilution; assay type: cell-based; details: S. hemolyticus AVHAH 88-3; Table IA; unit assumed
[2] = tested on: S. aureus ROSE (MP); test: MIC, agar dilution (Table IA); assay type: cell-based; details: unit assumed
[3] = tested on: E. coli J3272 TetD; test: MIC, agar dilution (Table IA); assay type: cell-based; details: unit assumed
[4] = tested on: E. coli UBMS 89-1 (tetM); test: MIC, agar dilution; assay type: cell-based; details: E. coli UBMS 89-1 TetM; Table IA; unit assumed
[5] = tested on: E. coli ATCC 25922; test: MIC, agar dilution; assay type: cell-based; details: E. coli ATCC 25922; Table IA; unit assumed
[6] = tested on: E. coli #311 (MP); test: MIC, agar dilution (Table IA); assay type: cell-based; details: unit assumed
[7] = tested on: S. aureus UBMS 88-5 (tetM); test: MIC, agar dilution; assay type: cell-based; details: S. aureus UBMS 88-5 TetM; Table IA; unit assumed
[8] = tested on: E. coli PRP1 TetA; test: MIC, agar dilution (Table IA); assay type: cell-based; details: unit assumed
[9] = tested on: X. maltophilia NEMC 87210; test: MIC, agar dilution (Table IA); assay type: cell-based; details: unit assumed
[10] = tested on: S. aureus UBMS 88-4 (Sensitive); test: MIC, agar dilution; assay type: cell-based; details: S. aureus UBMS 88-4; Table IA; unit assumed
[11] = tested on: S. mariescens FDOR 8733; test: MIC, agar dilution (Table IA); assay type: cell-based; details: unit assumed
[12] = tested on: E. coli J3272 TetC; test: MIC, agar dilution (Table IA); assay type: cell-based; details: unit assumed
[13] = tested on: E. coli J2175; test: MIC, agar dilution (Table IA); assay type: cell-based; details: unit assumed
[14] = tested on: E. coli UBMS 89-2 (Sensitive); test: MIC, agar dilution; assay type: cell-based; details: E. coli UBMS 89-2 Tet Sens.; Table IA; unit assumed
[15] = tested on: E. coli UBMS 90-4 (tetM); test: MIC, agar dilution; assay type: cell-based; details: E. coli UBMS 90-4 TetM; Table IA; unit assumed
[16] = tested on: S. aureus ATCC 29213 (Sensitive); test: MIC, agar dilution; assay type: cell-based; details: S. aureus ATCC 29213; Table IA; unit assumed
[17] = tested on: S. aureus NEMC 8769/89-4; test: MIC, agar dilution (Table IA); assay type: cell-based
[18] = tested on: E. faecalis 12201; test: MIC, agar dilution; assay type: cell-based; details: Enterococcus 12201; Table IA; unit assumed
[19] = tested on: S. aureus SMITH (sens); test: In vivo antibacterial evaluation, acute lethal infection in mice; details: Intraveneous
[20] = tested on: S. aureus Smith (Sensitive); test: MIC, agar dilution; assay type: cell-based; details: S. aureus SMITH (MP); Table IA; unit assumed
[21] = tested on: S. aureus IVES 1983 (meth. resistant); test: MIC, agar dilution; assay type: cell-based; details: S. aureus IVES 1983; Table IA; unit assumed
[22] = tested on: E. coli UBMS 88-1 (tetB); test: MIC, agar dilution; assay type: cell-based; details: E. coli UBMS 88-1 TetB; Table IA; unit assumed
[23] = tested on: S. aureus UBMS 90-1 (tetM); test: MIC, agar dilution; assay type: cell-based; details: S. aureus UBMS 90-1 TetM; Table IA; unit assumed
[24] = tested on: Ps. acruginosa ATCC 27853; test: MIC, agar dilution (Table IA); assay type: cell-based; details: unit assumed
[25] = tested on: S. aureus UBMS 90-3 (Sensitive); test: MIC, agar dilution; assay type: cell-based; details: S. aureus UBMS 90-3; Table IA; unit assumed
[26] = tested on: E. coli UBMS 90-5; test: MIC, agar dilution (Table IA); assay type: cell-based; details: unit assumed
[27] = tested on: E. faecalis ATCC 29212; test: MIC, agar dilution; assay type: cell-based; details: E. faecalis ATCC 29212; Table IA; unit assumed
[28] = tested on: S. aureus IVES 2943 (meth. resistant); test: MIC, agar dilution; assay type: cell-based; details: S. aureus IVES 2943; Table IA; unit assumed
[29] = tested on: S. aureus UBMS 88-7 (tetK); test: MIC, agar dilution; assay type: cell-based; details: S. aureus UBMS 88-7 TetK; Table IA; unit assumed
[30] = tested on: E. coli MC4100 TetB; test: MIC, agar dilution (Table IA); assay type: cell-based; details: unit assumed
[31] = tested on: E. coli J3272 Tet sens.; test: MIC, agar dilution (Table IA); assay type: cell-based; details: unit assumed
[32] = tested on: S. aureus UBMS 90-2 (tetM); test: MIC, agar dilution; assay type: cell-based; details: S. aureus UBMS 90-2 TetM; Table IA; unit assumed
[33] = tested on: S. aureus SMITH (sens); test: In vivo antibacterial evaluation, acute lethal infection in mice; details: Oral
Text: In Vivo Antibacterial Evaluation (Table VII)

[34] = tested on: E. coli BAJ9003; test: MIC, agar dilution (Table IA); assay type: cell-based

| Compound | Antibacterial activity (MIC) [1] [mg/L] | Antibacterial activity (MIC) [2] [mg/L] | Antibacterial activity (MIC) [3] [mg/L] | Antibacterial activity (MIC) [4] [mg/L] | Antibacterial activity (MIC) [5] [mg/L] | Antibacterial activity (MIC) [6] [mg/L] | Antibacterial activity (MIC) [8] [mg/L] | Antibacterial activity (MIC) [9] [mg/L] | Antibacterial activity (MIC) [10] [mg/L] | Antibacterial activity (MIC) [11] [mg/L] | Antibacterial activity (MIC) [12] [mg/L] | Antibacterial activity (MIC) [13] [mg/L] | Antibacterial activity (MIC) [14] [mg/L] | Antibacterial activity (MIC) [15] [mg/L] | Antibacterial activity (MIC) [16] [mg/L] | Antibacterial activity (MIC) [18] [mg/L] | ED50 [19] [mg/kg] | Antibacterial activity (MIC) [20] [mg/L] | Antibacterial activity (MIC) [21] [mg/L] | Antibacterial activity (MIC) [22] [mg/L] | also measured |
| --- | --- | --- | --- | --- | --- | --- | --- | --- | --- | --- | --- | --- | --- | --- | --- | --- | --- | --- | --- | --- | --- |
| CN(C)CC(=O)Nc1cc(N(C)C)c2c(c1O)C(=O)C1=C(O)C3(O)C(=O)C(C(N)=O)=C(O)C(N(C)C)C3CC1C2 (stereo not drawn) [LL, [4S-(4alpha,12aalpha)]-4,7-Bis(dimethylamino)-9-[[(dimethylamino)acetyl]amino]-1,4,4a,5,5a,6,11,12a-octahydro-3,10,12,12a-tetrahydroxy-1,11-dioxo-2-naphthacenecarboxamide] | 0.12 | 1 | 0.06 | 0.12 | 0.12 | 0.12 | 1 | 0.25 | 0.06 | 2 | 0.5 | 0.12 | 0.12 | 0.25 | 0.06 | 0.06 | 0.25 to 0.5 | 0.06 | 1 | 0.25 | Antibacterial activity (MIC) [7]: 0.12 mg/L; Antibacterial activity (MIC) [17]: ≦0.015; Antibacterial activity (MIC) [23]: 0.12 mg/L; Antibacterial activity (MIC) [24]: 4 mg/L; Antibacterial activity (MIC) [25]: 0.06 mg/L; Antibacterial activity (MIC) [26]: 0.12 mg/L; Antibacterial activity (MIC) [27]: 0.06 mg/L; Antibacterial activity (MIC) [28]: 1 mg/L; Antibacterial activity (MIC) [29]: 0.5 mg/L; Antibacterial activity (MIC) [30]: 0.25 mg/L; Antibacterial activity (MIC) [31]: 0.12 mg/L; Antibacterial activity (MIC) [32]: 0.12 mg/L; ED50 [33]: 4 to 8 mg/kg |
| CN(C)c1cc(NC(=O)CN2CCCC2)c(O)c2c1CC1CC3[C@H](N(C)C)C(O)=C(C(N)=O)C(=O)[C@@]3(O)C(O)=C1C2=O (stereo partly drawn) [SS, [7S-(7alpha,10aalpha)]-N-[9-(Aminocarbonyl)-4,7-bis(dimethylamino)-5,5a,6,6a,7,10,10a,12-octahydro-1,8,10a,11-tetrahydroxy-10,12-dioxo-2-naphthacenyl]-1-pyrrolidineacetamide dihydrochloride] | 0.25 | 1 | 0.12 | 0.12 | 0.25 | 0.12 | 0.5 | 0.5 | 0.12 | 2 | 0.25 | 0.25 | 0.25 | 0.25 | 0.12 | 0.12 | 1 to 2 | 0.12 | 0.5 | 0.25 | Antibacterial activity (MIC) ([17]; unit assumed): 0.03 mg/L; Antibacterial activity (MIC) [23]: 0.12 mg/L; Antibacterial activity (MIC) [24]: 16 mg/L; Antibacterial activity (MIC) [34]: ≦0.015; Antibacterial activity (MIC) [25]: 0.12 mg/L; Antibacterial activity (MIC) [26]: 0.25 mg/L; Antibacterial activity (MIC) [27]: 0.12 mg/L; Antibacterial activity (MIC) [28]: 1 mg/L; Antibacterial activity (MIC) [29]: 0.5 mg/L; Antibacterial activity (MIC) [30]: 0.25 mg/L; Antibacterial activity (MIC) [31]: 0.25 mg/L; Antibacterial activity (MIC) [32]: 0.12 mg/L; ED50 [33]: 8 to 16 mg/kg |
